From the supplement of paper PMC11451515

Tested on: SEM cells
Assay: cell viability relative to DMSO control; higher = less cytotoxic
Details: 48 h
Method in brief: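 Viability, reported as a per-plate percentage of DMSO wells with cell-free wells as background, came from CellTiter-Glo One luminescence. Reading took place after 48 h at 37°C. Before that, NOMO1 or SEM (500 cells/well) or P12-Ichikawa (1000 cells/well) leukemia cells, adapted for at least four passages in each medium, were seeded in 1536-well plates (5 μl) and pin-dosed with library compounds in DMSO, 47 μM to 0.79 nM over 11 threefold points.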

[1] = HPLM + 10% dialyzed FBS, 0.000781 µM
[2] = HPLM + 10% dialyzed FBS, 0.00234 µM
[3] = HPLM + 10% dialyzed FBS, 0.00702 µM
[4] = HPLM + 10% dialyzed FBS, 0.0211 µM
[5] = HPLM + 10% dialyzed FBS, 0.0632 µM
[6] = HPLM + 10% dialyzed FBS, 0.19 µM
[7] = HPLM + 10% dialyzed FBS, 0.569 µM
[8] = HPLM + 10% dialyzed FBS, 1.71 µM
[9] = HPLM + 10% dialyzed FBS, 5.12 µM
[10] = HPLM + 10% dialyzed FBS, 15.4 µM
[11] = HPLM + 10% dialyzed FBS, 46.1 µM
[12] = RPMI 5 mM glucose + 10% FBS, 0.000781 µM
[13] = RPMI 5 mM glucose + 10% FBS, 0.00234 µM
[14] = RPMI 5 mM glucose + 10% FBS, 0.00702 µM
[15] = RPMI 5 mM glucose + 10% FBS, 0.0211 µM
[16] = RPMI 5 mM glucose + 10% FBS, 0.0632 µM
[17] = RPMI 5 mM glucose + 10% FBS, 0.19 µM
[18] = RPMI 5 mM glucose + 10% FBS, 0.569 µM
[19] = RPMI 5 mM glucose + 10% FBS, 1.71 µM
[20] = RPMI 5 mM glucose + 10% FBS, 5.12 µM
[21] = RPMI 5 mM glucose + 10% FBS, 15.4 µM
[22] = RPMI 5 mM glucose + 10% FBS, 46.1 µM
[23] = RPMI 5 mM glucose + 10% dialyzed FBS, 0.000781 µM
[24] = RPMI 5 mM glucose + 10% dialyzed FBS, 0.00234 µM
[25] = RPMI 5 mM glucose + 10% dialyzed FBS, 0.00702 µM
[26] = RPMI 5 mM glucose + 10% dialyzed FBS, 0.0211 µM
[27] = RPMI 5 mM glucose + 10% dialyzed FBS, 0.0632 µM
[28] = RPMI 5 mM glucose + 10% dialyzed FBS, 0.19 µM
[29] = RPMI 5 mM glucose + 10% dialyzed FBS, 0.569 µM
[30] = RPMI 5 mM glucose + 10% dialyzed FBS, 1.71 µM
[31] = RPMI 5 mM glucose + 10% dialyzed FBS, 5.12 µM
[32] = RPMI 5 mM glucose + 10% dialyzed FBS, 15.4 µM
[33] = RPMI 5 mM glucose + 10% dialyzed FBS, 46.1 µM

SMILES | cell viability [1] [%] | cell viability [2] [%] | cell viability [3] [%] | cell viability [4] [%] | cell viability [5] [%] | cell viability [6] [%] | cell viability [7] [%] | cell viability [8] [%] | cell viability [9] [%] | cell viability [10] [%] | cell viability [11] [%] | cell viability [12] [%] | cell viability [13] [%] | cell viability [14] [%] | cell viability [15] [%] | cell viability [16] [%] | cell viability [17] [%] | cell viability [18] [%] | cell viability [19] [%] | cell viability [20] [%] | cell viability [21] [%] | cell viability [22] [%] | cell viability [23] [%] | cell viability [24] [%] | cell viability [25] [%] | cell viability [26] [%] | cell viability [27] [%] | cell viability [28] [%] | cell viability [29] [%] | cell viability [30] [%] | cell viability [31] [%] | cell viability [32] [%] | cell viability [33] [%]
COc1ccc(C(CN(C)C)C2(O)CCCCC2)cc1 (configuration not stated) | 83.7 | 134 | 106 | 134 | 124 | 118 | 106 | 107 | 117 | 116 | 104 | 78.5 | 132 | 122 | 110 | 124 | 125 | 103 | 112 | 119 | 120 | 95.9 | 64.9 | 120 | 122 | 134 | 163 | 138 | 115 | 122 | 148 | 118 | 135
COc1ccc(OC)c(-c2nnc3ccc(-c4ccc(OC)c(O[C@@H]5CCOC5)c4)nn23)c1 | 105 | 106 | 124 | 115 | 119 | 127 | 125 | 123 | 134 | 119 | 86.4 | – | – | – | – | – | – | – | – | – | – | – | 103 | 109 | 117 | 115 | 116 | 112 | 123 | 131 | 117 | 122 | 89.7
CCC[S+](=O)([O-])Nc1ccc(F)c(C(=O)c2c[nH]c3ncc(Cl)cc23)c1F | 108 | 137 | 121 | 123 | 123 | 121 | 129 | 103 | 107 | 17.9 | 9.67 | – | – | – | – | – | – | – | – | – | – | – | 107 | 120 | 117 | 121 | 132 | 131 | 122 | 120 | 121 | 46.9 | 9.16
CCCC(C)(COC(N)=O)COC(=O)NC(C)C (configuration not stated) | 87.5 | 95.9 | 117 | 111 | 139 | 120 | 120 | 131 | 126 | 123 | 130 | 97.3 | 113 | 140 | 138 | 127 | 148 | 147 | 163 | 134 | 149 | 160 | 88 | 121 | 144 | 150 | 138 | 128 | 156 | 143 | 139 | 164 | 153
CCN(CCO)CCCOc1ccc2c(Nc3cc(CC(=O)Nc4cccc(F)c4)[nH]n3)ncnc2c1 | 118 | 103 | 110 | 119 | 105 | 82.5 | 40.6 | 32.3 | 34.8 | 20.6 | 15.9 | 114 | 94.6 | 118 | 102 | 119 | 76.4 | 22.4 | 19.7 | 21.9 | 12.2 | 5.9 | 100 | 113 | 108 | 109 | 104 | 73.8 | 25.5 | 22.2 | 25 | 13.1 | 4.04
Cc1ccccc1C(OCCN(C)C)c1ccccc1 (configuration not stated) | 102 | 95.2 | 106 | 101 | 105 | 119 | 120 | 115 | 117 | 117 | 99.1 | 105 | 108 | 128 | 115 | 98.9 | 109 | 124 | 121 | 107 | 103 | 99.4 | 99.3 | 109 | 116 | 120 | 124 | 125 | 122 | 130 | 121 | 115 | 114
C[C@@H]1O[C@@H](O[C@H]2C[C@@H](O)[C@]3(CO)[C@H]4[C@H](O)C[C@]5(C)[C@@H](C6=CC(=O)OC6)CC[C@]5(O)[C@@H]4CC[C@]3(O)C2)[C@H](O)[C@H](O)[C@H]1O | 85.4 | 99.6 | 93.6 | 85.8 | 17.8 | 9.08 | 7.03 | 5.97 | 7.25 | 6.63 | 6.23 | 109 | 113 | 114 | 106 | 109 | 14.9 | 7.93 | 6.18 | 8 | 7.1 | 6.23 | 104 | 100 | 97.3 | 98.3 | 60 | 12.6 | 7.03 | 6.93 | 8.44 | 7.07 | 7.5
O=C1\C=C/C=C2/[C@H]3CNC[C@H](C3)CN12 | 97.4 | 95.2 | 103 | 108 | 101 | 106 | 114 | 104 | 102 | 112 | 103 | 101 | 104 | 102 | 113 | 123 | 114 | 103 | 127 | 113 | 112 | 61.2 | 108 | 76.6 | 101 | 118 | 112 | 123 | 120 | 119 | 126 | 103 | 113
